The results in this text go back to US10144715B2, “Piperazine derivatives as liver X receptor modulators” (priority 2014, dated 2018).

Like-named read-outs stand apart in the source and are kept apart here. Bounds are passed on as bounds.

Assay [1] has as its target T1, Gal4 DNA binding domain fused to the LBD of LXRβ in HEK293 cells (Homo sapiens (Human), UniProt P55055). The assay can be described thus: cell-based.
Assay [2] deals with T1, Gal4 DNA binding domain fused to the LBD of LXRβ in HEK293 cells. The assay can be described thus: cell-based. The class given is cell-based.
Assay [3] concerns the target T2, LXR β LBD protein (Homo sapiens (Human), UniProt P55055). The assay can be described thus: biochemical. Conditions: read-out: LXRβ Binding Ki. The class given is binding.
Target sequence in this assay (P55055 222-460 limits assumed): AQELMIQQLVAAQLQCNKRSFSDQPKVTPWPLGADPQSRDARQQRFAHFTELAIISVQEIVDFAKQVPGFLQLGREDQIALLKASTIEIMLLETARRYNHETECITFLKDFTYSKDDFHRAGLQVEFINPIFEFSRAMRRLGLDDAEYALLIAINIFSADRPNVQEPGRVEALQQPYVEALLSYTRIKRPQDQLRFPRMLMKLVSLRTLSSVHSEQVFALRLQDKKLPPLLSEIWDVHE
In assay [4] the target is T3, LXR α LBD protein (Homo sapiens (Human), UniProt Q13133). The assay can be described thus: LXR α radioligand binding assay (SPA, competition with [3H]TO901317). Conditions: read-out: LXRα Binding Ki.
T3 sequence (Q13133 209-447): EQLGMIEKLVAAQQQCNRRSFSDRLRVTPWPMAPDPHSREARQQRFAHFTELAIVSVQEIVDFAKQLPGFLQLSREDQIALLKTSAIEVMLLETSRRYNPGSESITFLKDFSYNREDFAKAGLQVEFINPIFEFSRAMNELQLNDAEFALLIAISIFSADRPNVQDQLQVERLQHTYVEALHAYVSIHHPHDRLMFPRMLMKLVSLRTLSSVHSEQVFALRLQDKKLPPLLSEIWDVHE
The target in assay [5] is T4, Gal4 DNA binding domain fused to the LBD of LXRα in HEK293 cells (Homo sapiens (Human), UniProt Q13133). The assay can be described thus: LXR luciferase transcriptional reporter gene assay, agonist mode, LXRα. The format is cell-based. As to conditions: for EC50: read-out: Cell LXRα EC50.
T4 sequence (Q13133 209-447): as above
The target in assay [6] is T4, Gal4 DNA binding domain fused to the LBD of LXRα in HEK293 cells. The assay can be described thus: LXR luciferase transcriptional reporter gene assay, antagonist mode (200 nM T0901317), LXRα. The format is cell-based. Conditions: for IC50: read-out: Cell LXRα IC50.
In assay [7] the target is T3, LXR α LBD protein. The assay can be described thus: Human LXRα coactivator recruitment FRET assay, agonist mode. The format is biochemical. A digest of the protocol:
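LXRα- or LXRβ-LBD at 10 nM (2×) mixed with compound in DMSO, then fluorescein-SRC2-3 peptide 200 nM and Tb-anti-GST antibody 20 nM (4×) added; 2 h at rt. Time-resolved FRET read, 100 µs delay, 200 µs window; EC50 from four-parameter fit of percent control.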

The target of assay [8] is T2, LXR β LBD protein. The assay is described as follows: biochemical. The format is biochemical.
Target sequence in this assay (P55055 222-460): as the sequence (P55055 222-460 limits assumed) above
The mark [9] stands for this setting: antagonist mode, 200 nM T0901317, HEK293 reporter gene assay.
Setting [10] is: Biological Test Example 3, agonist mode.

T1 sequence (P55055 222-460 limits assumed): as above

In assay [1], `CC(C)[C@@H]1CN(c2ccc(F)c(S(C)(=O)=O)c2)CCN1c1nccc(OCC(F)(F)F)n1` [44-3, (R)-2-(4-(4-fluoro-3-(methylsulfonyl)phenyl)-2-isopropylpiperazin-1-yl)-4-(2,2,2-trifluoroethoxy)pyrimidine] had an EC50 above 20000 nM. Further, in assay [2], the “Cell LXRβ efficacy” value is given as 91 (93) % and the IC50 was found to be 91 nM. The Ki at LXR β LBD protein [3] was found to be 67 nM.

For `CC(C)[C@@H]1CN(c2ccc(F)c(S(C)(=O)=O)c2)CCN1c1ncc(CNS(C)(=O)=O)c(C(F)(F)F)n1` [15-7, (R)-N-((2-(4-(4-fluoro-3-(methylsulfonyl)phenyl)-2-isopropylpiperazin-1-yl)-4-(trifluoromethyl)pyrimidin-5-yl)methyl)methanesulfonamide], the EC50 in assay [1] amounted to 198 nM; in assay [5], 2320 nM. Moreover, the “Cell LXRβ efficacy” value in assay [1] (agonist mode) was 198 (18) %; in assay [2] (setting [9]), 1773 (113) %. Besides, the Ki turned out to be 512 nM on LXR α LBD protein [4] and 40 nM on LXR β LBD protein [3]. Moreover, in assay [5], the “Cell LXRα efficacy” value was 2315 (23) %. In assay [2], this molecule displayed an IC50 of 1770 nM.

Consider `CS(=O)(=O)c1cccc(N2CCN(C[C@H]3CC[C@H](C(F)F)CC3)[C@@H](c3ccccc3)C2)c1` (single isomer, unassigned) [48-19], for which the Ki at LXR α LBD protein [4] was 313 nM. In assay [5], the “Cell LXRα efficacy” value is 712 (25) % and the EC50 was 712 nM. In addition, in assay [6], the “Cell LXRα efficacy” value is 1630 (67) % and the IC50 amounted to 1630 nM. Besides, at LXR α LBD protein [7] (agonist mode), the EC50 stood at 1880 nM and the “FRET LXRα efficacy” value was found to be 13%.

With `CC(C)(O)[C@@H]1CN(c2cccc(S(C)(=O)=O)c2)CCN1c1nccc(C(F)(F)F)n1` [7-24, (S)-2-(4-(3-(methylsulfonyl)phenyl)-1-(4-(trifluoromethyl)pyrimidin-2-yl)piperazin-2-yl)propan-2-ol], the “Cell LXRβ efficacy” value in assay [1] is listed as 275 (37) %; in assay [2], 9 (64) %. In addition, the EC50 came out at 275 nM in assay [1], 14 nM on LXR β LBD protein [8] (read-out: FRET LXRβ EC50), 1590 nM in assay [5] and 457 nM at LXR α LBD protein [7] (agonist mode). Besides, the Ki at LXR α LBD protein [4] is 1030 nM; at LXR β LBD protein [3], 43 nM. In addition, at LXR β LBD protein [8], the “FRET LXRβ efficacy” value is 14 (74) %. In addition, the “Cell LXRα efficacy” value in assay [5] was 1586 (50) %. In assay [2], this molecule gave an IC50 of 9 nM. For the same molecule, the “FRET LXRα efficacy” value at LXR α LBD protein [7] (agonist mode) worked out at 83%.

As for `CC(C)[C@@H]1CN(c2ccc(F)c(S(C)(=O)=O)c2)CCN1c1ncc(C(=O)N(C)C)c(C(F)(F)F)n1` [Cpd No 17-1, (R)-2-(4-(4-fluoro-3-(methylsulfonyl)phenyl)-2-isopropylpiperazin-1-yl)-N,N-dimethyl-4-(trifluoromethyl)pyrimidine-5-carboxamide], in assay [1], the “Cell LXRβ efficacy” value was 244 (8) % and the midpoint of the response, the EC50, lay at 244 nM. Further, in assay [2], the “Cell LXRβ efficacy” value is 667 (84) % and the half-maximal inhibitory concentration (IC50) was found to be 667 nM. At LXR β LBD protein [3], the Ki was 123 nM.

As to `CS(=O)(=O)c1cccc(N2CCN(C[C@H]3CC[C@@H](C(F)F)CC3)[C@@H](c3ccccc3)C2)c1` (single isomer, unassigned) [Cpd No 48-17], the Ki on LXR α LBD protein [4] was 60 nM. Also, the “Cell LXRα efficacy” value in assay [5] is 127 (39) %. The EC50 in assay [5] (agonist mode) worked out at 127 nM. Besides, in assay [6] (setting [9]), the IC50 is 1350 nM. On LXR α LBD protein [7] (agonist mode), the EC50 came out at 287 nM and the “FRET LXRα efficacy” value turned out to be 36%.

On to `CC(C)[C@@H]1CN(c2ccc(F)c(S(C)(=O)=O)c2)CCN1c1ncc(CN2CC(O)C2)c(C(F)(F)F)n1` [15-4, (R)-1-((2-(4-(4-fluoro-3-(methylsulfonyl)phenyl)-2-isopropylpiperazin-1-yl)-4-(trifluoromethyl)pyrimidin-5-yl)methyl)azetidin-3-ol], for which the EC50 in assay [1] stood at 182 nM; in assay [5] (agonist mode) it was 2840 nM. In addition, the “Cell LXRβ efficacy” value in assay [1] (agonist mode) was 182 (13) %; in assay [2] (setting [9]) it was 1438 (104) %. For the same molecule, the “Cell LXRα efficacy” value in assay [5] is given as 2838 (20) %. In addition, in assay [2], the IC50 came out at 1440 nM. Further, the Ki at LXR β LBD protein [3] worked out at 100 nM.

For `CC(C)[C@@H]1CN(c2ccc(F)c(S(C)(=O)=O)c2)CCN1c1ncc(CN(C)C)c(C(F)(F)F)n1` [15-3, (R)-1-(2-(4-(4-fluoro-3-(methylsulfonyl)phenyl)-2-isopropylpiperazin-1-yl)-4-(trifluoromethyl)pyrimidin-5-yl)-N,N-dimethylmethanamine], the EC50 amounted to 74 nM in assay [1] and 1140 nM in assay [5] (agonist mode). Moreover, the “Cell LXRβ efficacy” value is 74 (17) % in assay [1] (agonist mode) and 900 (93) % in assay [2] (setting [9]). In addition, the “Cell LXRα efficacy” value in assay [5] is on record as 1144 (25) %. The molecule also gave an IC50 in assay [2] of 900 nM. Also, the Ki at LXR β LBD protein [3] is 47 nM.

Take `CC(C)[C@@H]1CN(c2cccc(S(C)(=O)=O)c2)CCN1c1ccnc(C(F)(F)F)n1` [7-50, (R)-4-(2-isopropyl-4-(3-(methylsulfonyl)phenyl)piperazin-1-yl)-2-(trifluoromethyl)pyrimidine]: the “Cell LXRα efficacy” value in assay [5] was 2029 (50) %; in assay [6], 4587 (78) %. The EC50 in assay [5] (agonist mode) worked out at 2030 nM; on LXR α LBD protein [7] (agonist mode) it was 298 nM. Further, the IC50 in assay [6] (setting [9]) worked out at 4590 nM. For the same molecule, on LXR α LBD protein [7] (agonist mode), the “FRET LXRα efficacy” value came to 59%.

As to `CC(C)[C@@H]1CN(c2ccc(C(N)=O)c(S(C)(=O)=O)c2)CCN1c1nccc(C(F)(F)F)n1` [4-2, (R)-4-(3-isopropyl-4-(4-(trifluoromethyl)pyrimidin-2-yl)piperazin-1-yl)-2-(methylsulfonyl)benzamide], in assay [5], the “Cell LXRα efficacy” value was 1172 (71) %. Besides, the EC50 in assay [5] (agonist mode) is 1170 nM. Besides, the IC50 in assay [6] (setting [9]) is above 10000 nM. On LXR α LBD protein [7] (agonist mode), the EC50 is 293 nM and the “FRET LXRα efficacy” value is 87%.

Regarding `Cc1nc(N2CCN(c3ccc(F)c(S(C)(=O)=O)c3)C[C@H]2C(C)C)ncc1F` [7-23, (R)-5-fluoro-2-(4-(4-fluoro-3-(methylsulfonyl)phenyl)-2-isopropylpiperazin-1-yl)-4-methylpyrimidine], in assay [5], the “Cell LXRα efficacy” value is reported as 1531 (52) %. The EC50 in assay [5] (agonist mode) was 1530 nM. Besides, in assay [6] (setting [9]), the IC50 is above 10000 nM. Moreover, on LXR α LBD protein [7] (agonist mode), the EC50 was determined as 1130 nM and the “FRET LXRα efficacy” value stood at 73%.

On to `CS(=O)(=O)c1cccc(N2CCN(CC3CCN(CC(F)(F)F)CC3)[C@@H](c3ccccc3)C2)c1` (single isomer, unassigned) [48-52], for which the “Cell LXRα efficacy” value in assay [5] is reported as 736 (30) %; in assay [6], 4773 (89) %. Also, the EC50 in assay [5] (Biological Test Example 2, agonist mode) stood at 736 nM; at LXR α LBD protein [7] (setting [10]), 1060 nM. The half-inhibitory concentration (IC50) in assay [6] (setting [9]) came to 4770 nM. Besides, the “FRET LXRα efficacy” value on LXR α LBD protein [7] (setting [10]) was determined as 32%.

Turning to `CC1(C)CCC(CN2CCN(c3cccc(S(C)(=O)=O)c3)C[C@@H]2c2ccccc2)CC1` [Cpd No 48-4, (S)-1-((4,4-dimethylcyclohexyl)methyl)-4-(3-(methylsulfonyl)phenyl)-2-phenylpiperazine], at LXR α LBD protein [4], the inhibition constant Ki came to 39 nM. In assay [5], the “Cell LXRα efficacy” value was 279 (61) % and the EC50 stood at 279 nM. Moreover, in assay [6], the “Cell LXRα efficacy” value is reported as 6447 (79) % and the half-inhibitory concentration (IC50) is 6450 nM. Also, at LXR α LBD protein [7] (agonist mode), a half-maximal effect (EC50) was put at 301 nM and the “FRET LXRα efficacy” value amounted to 39%.
